According to patent publication US20250108032A1, “METHODS OF TREATING TYPE 1 DIABETES AND KIDNEY DISEASE” (LEXICON PHARMACEUTICALS, INC., priority 2023, published 2025):

Assays:
[1] = system: patients with type 2 diabetes mellitus and CKD (eGFR 25 to 60 ml per minute per 1.73 m^2); format: in vivo
Text: The cardiorenal protective properties of sotagliflozin in patients with type 2 diabetes informed research that led to the present invention. […] The primary end point was changed during the trial to the composite of the total number of deaths from cardiovascular causes, hospitalizations for heart failure, and urgent visits for heart failure.
Of 19.188 patients screened, 10,584 were enrolled, with 5,292 assigned to the sotagliflozin group and 5,292 assigned to the placebo group and followed for a median of 16 months. The rate of primary end-point events was 5.6 events per 100 patient-years in the sotagliflozin group and 7.5 events per 100 patient-years in the placebo group: hazard ratio, 0.74; 95% confidence interval (CI), 0.63 to 0.88; P<0.001. The rate of deaths from cardiovascular causes per 100 patient-years was 2.2 with sotagliflozin and 2.4 with placebo (hazard ratio, 0.90; 95% CI, 0.73 to 1.12; P=0.35). For the original coprimary end point of the first occurrence of death from cardiovascular causes, nonfatal myocardial infarction, or nonfatal stroke, the hazard ratio was 0.84 (95% CI, 0.72 to 0.99); for the original coprimary end point of the first occurrence of death from cardiovascular causes or hospitalization for heart failure, the hazard ratio was 0.77 (95% CI, 0.66 to 0.91). Diarrhea, genital mycotic infections and volume depletion were more common with sotagliflozin than with placebo.
Table 1 provides the number and type of cardiorenal events observed during the trial, wherein each of the sotagliflozin and placebo groups contained 5292 patients.

[2] = system: patients with type 1 diabetes receiving insulin therapy (overall and CKD cohorts); test: inTandem3 phase 3, double-blind trial, sotagliflozin 400 mg per day vs placebo for 24 weeks; format: in vivo, human; conditions: for placebo-adjusted systolic blood pressure, least-squared mean change: after 16 weeks; for DKA, HR (95% CI) / Severe hypoglycemia, HR (95% CI): 400 mg/day vs placebo
Procedure: The in Tandem3 study was a phase 3, double-blind trial conducted at 133 centers worldwide. In the study, 1402 patients with type 1 diabetes who were receiving treatment with insulin therapy (pump or injections) were randomly assigned to receive sotagliflozin (400 mg per day) or placebo for 24 weeks. The primary end point was a glycated hemoglobin level lower than 7.0% at week 24 with no episodes of severe hypoglycemia or diabetic ketoacidosis after randomization. Secondary end points included the change from baseline in glycated hemoglobin level, weight, systolic blood pressure, and mean daily bolus dose of insulin. Specific details of the study were reported in Garg, S. K., et al., “Effects of Sotagliflozin Added to Insulin in Patients with Type 1 Diabetes” N. Engl. J. Med. 2017:377:2337-48.
The rate of severe hypoglycemia was similar in the sotagliflozin group and the placebo group (3.0% [21 patients] and 2.4% [17 patients], respectively). […] The rate of DKA was higher in the sotagliflozin group than in the placebo group (3.0% [21 patients] and 0.6%, respectively). Id. at 2337.
For this invention, data from CKD patients were compared to those of the overall cohort. As shown below, 16% of patients had CKD at baseline: […]

[3] = T2D and CKD, 5292 patients per group
[4] = 400 mg per day, overall population
[5] = 400 mg/day, CKD Cohort N = 115, 24 weeks

SMILES: CCOc1ccc(Cc2cc([C@@H]3O[C@H](SC)[C@@H](O)[C@H](O)[C@H]3O)ccc2Cl)cc1 [sotagliflozin, (2S,3R,4R,5S,6R)-2-(4-chloro-3-(4-ethoxybenzyl)phenyl)-6-(methylthio)tetrahydro-2H-pyran-3,4,5-triol]
- 50% decline in eGFR (sustained or last value), n (%) [1, 3]: 75 (1.4) n (%)
- Chronic dialysis or transplant, n (%) [1, 3]: 15 (0.3) n (%)
- End-stage kidney disease, n (%) [1, 3]: 50 (0.9) n (%)
- Renal death, n (%) [1, 3]: 8 (0.2) n (%)
- eGFR <15 mL/min/m^2 (sustained or last value), n (%) [1, 3]: 41 (0.8) n (%)
- First event in composite, n (%) ([1]; cardiorenal composite, T2D and CKD, 5292 patients per group, median follow-up 16 months): 239 (4.5) n (%)
- risk of cardiorenal endpoints ([1]; compared to placebo, FIG. 1): significantly reduced
- rate of primary end-point events ([1]; composite of deaths from cardiovascular causes, hospitalizations for heart failure, urgent visits for heart failure, median 16 months): 5.6 events per 100 patient-years
- Diarrhea, genital mycotic infections and volume depletion ([1]; human, in vivo): more common
- rate of deaths from cardiovascular causes ([1]; median follow-up 16 months): 2.2 per 100 patient-years
- 50% decline in eGFR (sustained or last value), HR (95% CI) ([1]; vs placebo): 0.60 (0.45, 0.81)
- End-stage kidney disease, HR (95% CI) ([1]; vs placebo): 0.63 (0.45, 0.91)
- Renal death, HR (95% CI) ([1]; vs placebo): 1.59 (0.52, 4.86)
- eGFR <15 mL/min/m^2 (sustained or last value), HR (95% CI) ([1]; vs placebo): 0.60 (0.41, 0.88)
- primary end point hazard ratio ([1]; vs placebo, 95% CI 0.63 to 0.88): 0.74
- hazard ratio, original coprimary end point: first occurrence of death from cardiovascular causes or hospitalization for heart failure ([1]; vs placebo, 95% CI 0.66 to 0.91): 0.77
- hazard ratio, original coprimary end point: first occurrence of death from cardiovascular causes, nonfatal myocardial infarction, or nonfatal stroke ([1]; vs placebo, 95% CI 0.72 to 0.99): 0.84
- First event in composite, HR (95% CI) ([1]; vs placebo, T2D and CKD): 0.77 (0.65, 0.91)
- placebo-adjusted systolic blood pressure, least-squared mean change ([2]; 400 mg per day, CKD group, SE=1.81): −7.1 mm Hg
- placebo-adjusted change in HbA1C, least-squared mean ([2]; 400 mg per day, CKD group, after 24 weeks, SE=0.120): −0.46%
- placebo-adjusted change in body weight, least-squared mean ([2]; 400 mg per day, CKD group, after 24 weeks, SE=0.464): -2.82 kg
- number of patients achieving the primary end point ([2]; 400 mg per day, of 699 patients): 200 patients
- mean daily bolus dose of insulin, least-squares mean change from baseline, difference vs placebo [2, 4]: −2.8 units per day
- proportion of patients achieving the primary end point (glycated hemoglobin lower than 7.0% at week 24 with no severe hypoglycemia or DKA) [2, 4]: 28.6%
- systolic blood pressure, least-squares mean change from baseline, difference vs placebo [2, 4]: −3.5 mm Hg
- glycated hemoglobin, least-squares mean change from baseline, difference vs placebo ([2]; 400 mg per day, overall population, 24 weeks): −0.46 percentage points
- placebo-adjusted systolic blood pressure, least-squared mean change ([2]; 400 mg per day, total, overall population, SE=0.57): −3.8 mm Hg
- placebo-adjusted change in body weight, least-squares mean ([2]; 400 mg per day, total, overall population, after 24 weeks): -2.98 kg
- placebo-adjusted change in HbA1C, least-squared mean ([2]; 400 mg per day, total, overall population, after 24 weeks, SE=0.042): −0.46%
- DKA, HR (95% CI) ([2]; CKD Cohort, 24 weeks): 3.5
- Severe hypoglycemia, HR (95% CI) ([2]; CKD Cohort, 24 weeks): 1.7
- DKA, HR (95% CI) ([2]; Overall Cohort, 24 weeks): 5.5
- Severe hypoglycemia, HR (95% CI) ([2]; Overall Cohort, 24 weeks): 1.3
- DKA, % [2, 5]: (2.6) %
- Severe hypoglycemia, % [2, 5]: (7.0) %
- rate of documented hypoglycemia with a blood glucose level of 55 mg per deciliter (3.1 mmol per liter) or below ([2]; sotagliflozin group vs placebo group): significantly lower
